One assay deals with T1, PDE5 (Bos taurus, UniProt Q28156).
T1 construct: localize the different enzymes PDE1, PDE3, PDE4 and PDE5, which were aliquoted and frozen; from tissue; host or cells: bovine aortic media (vascular smooth muscle), DEAE-Sephacel fraction
The assay can be described thus: Selectivity: inhibition of PDE5, radioenzymatic phosphodiesterase assay. It counts as biochemical, bovine. The conditions noted are these: Table 4 Selectivity; compound at 10 μM; read-out: PDE5 percentage inhibition at 10 μM. How it is done:
(§1) A 3 g segment of bovine aortic media cut into pieces with scissors was homogenized with an ultra-turrax then a potter glass/glass homogenizer in 7 volumes by weight of buffer A containing a protease inhibitor cocktail (20 mM Tris-HCl, 0.25 M saccharose, 2 mM magnesium acetate, 1 mM dithiothreitol, 5 mM EGTA, 2000 U/ml aprotinin, 10 mg/l leupeptin and 10 mg/l soya trypsic inhibitor). The homogenizate was centrifuged at 105,000 g for 1 hour. The supernatant was loaded on a DEAE-Sephacel column (15×1.6 cm) pre-equilibrated with buffer B (buffer A without the saccharose, EGTA and protease inhibitors). The column was washed until there was no detectable absorption at 280 nm, then eluted with a linear gradient of NaCl (0–0.5 M) in buffer B. 3-ml fractions were collected and enzyme activity was determined under the conditions described hereinafter to localize the different enzymes PDE1, PDE3, PDE4 and PDE5, which were aliquoted and frozen at −80° C. (Lugnier et al., Biochem. Phamacol., 35 (1986) 1746–1751). PDE2 was prepared from bovine endothelial cells by the same methods (Lugnier and Schini, Biochem. Pharmacol. 1990, 39; 75–84).
(§2) Cyclic nucleotide phosphodiesterase activity was determined by a radioenzymatic method using tritium-labelled cyclic GMP or AMP (1 μM) as substrate (Lugnier et al., 1986). ^3H-labelled adenosine or guanosine monophosphate formed by hydrolysis of the radiolabelled cyclic nucleotide was then converted to ^3H-labelled adenosine or guanosine in a second reaction with […] in excess. The nucleoside formed was separated from the nucleotides by anion exchange chromatography. Nucleoside radioactivity was determined by liquid scintillation counting. Enzymatic incubations were carried out under conditions allowing no more than 15% hydrolysis of the substrate; each point was performed in duplicate.
(§3) The activity of the compounds was evaluated on other phosphodiesterase isoforms, particularly basal state or calmodulin-activated PDE1 from vascular smooth muscle, basal state or cyclic GMP-activated PDE2 from vascular endothelial cells, PDE3 and PDE5 from vascular smooth muscle.
(§4) The results obtained are presented in Table 4 hereinafter and are expressed as the percentage inhibition of enzymatic activity produced by […] of the tested compound.

A further assay concerns the target T2, PDE3 (Bos taurus, UniProt A0A3Q1M1E8).
T2 sequence (A0A3Q1M1E8 1-1126): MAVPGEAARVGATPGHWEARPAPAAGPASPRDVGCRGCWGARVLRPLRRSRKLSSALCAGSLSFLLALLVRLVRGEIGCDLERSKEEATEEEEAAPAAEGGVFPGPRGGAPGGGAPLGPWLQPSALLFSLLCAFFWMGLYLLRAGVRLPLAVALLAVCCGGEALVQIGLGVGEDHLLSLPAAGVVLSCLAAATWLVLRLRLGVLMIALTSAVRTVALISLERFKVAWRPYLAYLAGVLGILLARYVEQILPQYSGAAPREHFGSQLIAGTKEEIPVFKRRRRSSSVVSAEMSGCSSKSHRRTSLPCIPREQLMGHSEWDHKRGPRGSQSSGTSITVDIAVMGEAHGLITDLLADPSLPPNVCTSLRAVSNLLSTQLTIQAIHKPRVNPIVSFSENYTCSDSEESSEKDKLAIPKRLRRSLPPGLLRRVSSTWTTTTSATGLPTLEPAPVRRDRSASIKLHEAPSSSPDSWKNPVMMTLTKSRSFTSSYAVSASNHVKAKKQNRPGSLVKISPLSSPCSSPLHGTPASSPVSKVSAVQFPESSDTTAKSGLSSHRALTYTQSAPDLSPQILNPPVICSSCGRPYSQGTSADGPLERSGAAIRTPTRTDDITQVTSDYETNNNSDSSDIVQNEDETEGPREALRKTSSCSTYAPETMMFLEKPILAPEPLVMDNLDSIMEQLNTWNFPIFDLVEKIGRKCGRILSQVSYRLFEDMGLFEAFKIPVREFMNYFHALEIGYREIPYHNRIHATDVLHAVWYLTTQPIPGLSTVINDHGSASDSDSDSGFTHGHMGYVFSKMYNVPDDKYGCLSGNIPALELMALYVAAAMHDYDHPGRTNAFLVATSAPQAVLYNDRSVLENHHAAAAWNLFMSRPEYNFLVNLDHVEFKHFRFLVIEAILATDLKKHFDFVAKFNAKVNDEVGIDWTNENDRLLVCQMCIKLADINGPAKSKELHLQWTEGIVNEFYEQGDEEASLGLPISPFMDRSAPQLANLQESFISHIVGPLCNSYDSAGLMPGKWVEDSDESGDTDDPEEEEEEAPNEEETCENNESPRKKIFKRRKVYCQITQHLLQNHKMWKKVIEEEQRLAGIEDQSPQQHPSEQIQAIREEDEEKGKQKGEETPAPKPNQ
The experiment in a line: Selectivity: inhibition of PDE3, radioenzymatic phosphodiesterase assay. The format is biochemical, bovine. The conditions noted are these: read-out: PDE3 percentage inhibition at 10 μM. How it is done: as §1, §2, §3, §4

For the next assay, the system named is TNFα. The assay can be described thus: TNFα production by LPS-activated mononuclear cells from venous blood (ELISA). The conditions noted are these: Homo sapiens. It counts as cell-based. The method, then: Compounds according to the invention were assessed for anti-inflammatory properties on mononuclear cells from venous blood of healthy donors (n=4), by a protocol approved by the Alsace No. 1 Ethics Committee. More specifically, the cells were incubated for 24 hours in 24-well plates in the presence of the test compound, after activation by Salmonella Abortis Equi lipopolysaccharide (LPS) (5 pg/ml) (cf. De Groote et al., Cytokine 4, 1992, 239). After incubation, TNFα concentrations were determined in the culture supernatant by an ELISA method (Antibody Solutions, Half Moon Bay, Calif., USA).

Another assay concerns PDE1. The assay can be described thus: Selectivity: inhibition of PDE1, radioenzymatic phosphodiesterase assay. The conditions noted are these: Table 4 Selectivity; compound at 10 μM. It counts as biochemical, bovine. On the set-up: PDE1 percentage inhibition at 10 μM: unit: %. The method, then: as §1, §2, §3, §4
In a further assay the target is PDE4. The experiment in a line: Inhibition of PDE4, radioenzymatic phosphodiesterase assay. It counts as biochemical, bovine. The essentials: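 PDE4 partially purified from bovine aortic media by 105,000 g centrifugation and anion-exchange chromatography with an NaCl gradient. Activity measured radioenzymatically: product nucleoside separated from nucleotides by anion exchange and counted by liquid scintillation.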

Each structure is given as a SMILES string. “And” between values parts separate entries of the source, which are not always exact repeats. Equal values may be shown once.

Regarding `CCOc1cc2c(cc1OCC)C(c1ccccc1)=NCC(=O)N2` [XXIIag, 7,8-diethoxy-5-phenyl-1,3-dihydro-2H-1,4-benzodiazepin-2-one], the inhibition at 10 µM on PDE5 was 35%; at PDE3 it was 22%. Besides, the IC50 with TNFα (read-out: anti-TNFα activity IC50) is 100 to 1000 nM; at PDE4 (Table 2, formula (XXII), 1 μM cyclic AMP), 950 nM; on PDE4 (Table 4 Selectivity), 950 nM. Moreover, in the assay on PDE1, the “PDE1 percentage inhibition at 10 μM” value is 46%.

`CCOc1cc2c(cc1OC)C(c1ccccc1)=NCC(=O)N2C` [IIda, 8-ethoxy-7-methoxy-1-methyl-5-phenyl-1,3-dihydro-2H-1,4-benzodiazepin-2-one]: the inhibition at 10 µM at PDE5 stood at 14%; on PDE3, 47%. Moreover, the inhibition at 1 µM in the assay with TNFα (24 h, read-out: inhibition of TNFα production) is 100%. For the same compound, the “PDE1 percentage inhibition at 10 μM” value in the assay on PDE1 is on record as 26%. Also, the IC50 is 550 nM and 430 nM against PDE4 (Table 3, formula (II), 1 μM cyclic AMP); 500 nM against PDE4 (Table 4 Selectivity).

The record behind these values is US7250410B2, “Cyclic nucleotide phosphodiesterase inhibitors, preparation and uses thereof” (Via Pharmaceuticals, Inc., priority 2001, dated 2007).
